Results reported in patent publication US20250163057A1, “DCN-1 MODULATING COMPOUNDS AND METHODS OF USE THEREOF” (Cellarity, Inc., priority 2023, published 2025).
Counter-ions that a name gives are not always drawn. Like-named read-outs stand apart in the source and are kept apart here.

Legend:
[1] = target: DCN1 (DCUND1) protein PONY domain (Homo sapiens (Human), UniProt Q96GG9); assay: TR-FRET assay, DCN1 binding with FAM-labeled probe
In short: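 Biotinylated DCN1 PONY domain, labeled with streptavidin-Tb, was competed against a FAM-labeled non-covalent DCN1 inhibitor probe in buffer with TritonX and 200 mM NaCl. Conditions were 5 nM DCN1 with 20 nM FAM-probe, or 0.31 nM DCN1 with 100 nM FAM-plus 800 nM unlabeled probe. The TR-FRET ratio was read at 1, 5 and 24 h (0.1% DMSO).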

[2] = system: Cullin-3 (CUL3) neddylation; assay: AlphaLISA assay for Cullin-3 (CUL3) neddylation in TF 1 cells; assay type: cell-based; conditions: 3 hours treatment
Procedure: An AiphaLISA assay was performed to evaluate the ability of the compounds to suppress neddylation, which is downstream from DCN-1 and DCN-2. A stronger inhibition of DCN-1 and DCN-2 is expected to result in a suppression of neddylation as shown by a lower AlphaLISA signal. The AlphaLISA assay for detecting Cullin-3 (CUL3) neddylation was performed according to manufacturer instructions (Revvity, Hopkinton, MA). Briefly, TF 1 cells (ATCC) were plated in Iscove's Modified Dulbecco's Medium (IMIDM) without supplements in 384-well plates. These cells were treated with […] for 3 hours before lysing them with AlphaLISA lysis buffer, 5× (Revvity). To detect the level of CUL3 neddylation, biotinylated anti-NEDD8 antibody, was added followed by AlphaLISA Acceptor beads conjugated with anti-CUL3 antibody. After overnight incubation, Streptavidin-coated Alpha Donor beads were added and incubated for 1 hour. The AlphaLISA signal was then read on a VICTOR Nivo Multimode Microplate Reader (Revvity, Hopkinton, MA). The positive control was 1 μM DI-1548, which is reported to reduce CUL3 neddylation, also referred to as C-1 in Example 41 (Zhou et al. Nature Comm. 2021). The neddylation signal was normalized such that the percent inhibition is 0% for vehicle control and 100% for positive control. The dose-response curves were fitted with the Hill equation to obtain IC50 values (Graphpad Prism).

[3] = 24 hr after treatment with compound, read-out: TR FRET IC50 24 hr
[4] = TR FRET IC50 1 hr (nM), 1 hr after treatment with compound
[5] = read-out: TR FRET IC50 1 hr, 1 hr after treatment with compound

Sequence of DCN1 (DCUND1) protein PONY domain (Q96GG9 60-248): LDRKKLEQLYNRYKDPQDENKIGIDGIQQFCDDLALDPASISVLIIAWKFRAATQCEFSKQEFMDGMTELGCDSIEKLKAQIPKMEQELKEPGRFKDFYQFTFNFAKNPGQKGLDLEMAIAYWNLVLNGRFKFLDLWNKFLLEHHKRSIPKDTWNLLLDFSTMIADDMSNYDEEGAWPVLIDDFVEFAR

Row | SMILES | IC50 [1, 3] | IC50 [1, 4] | IC50 ([2]; Homo sapiens, TF-1, 3 h) | IC50 [1, 5] | IC50 [2]
1 | CCN1C(=O)[C@@H](NC(=O)c2nccc(C(F)(F)F)n2)[C@H](c2ccc(F)cc2)c2c(CC(=O)N(C)CC#N)nn(-c3ccccc3)c21 [Compound I-640, N-((4R,5S)-3-(2-((cyanomethyl)(methyl)amino)-2-oxoethyl)-7-ethyl-4-(4-fluorophenyl)-6-oxo-1-phenyl-4,5,6,7-tetrahydro-1H-pyrazolo[3,4-b]pyridin-5-yl)-4-(trifluoromethyl)pyrimidine-2-carboxamide] | 1000 to 3000 nM | 1000 to 3000 nM | 100 to 1000 nM |  | 
2 | CCN1C(=O)[C@@H](NC(=O)c2cccc(C(F)(F)F)c2)[C@@H](C2CC2)c2c(C(=O)N(CC#N)C3CC3)nn(C3CCOCC3)c21 [Compound I-682] | ≤ 200 nM | 200 to 1000 nM | ≤ 100 nM |  | 
3 | CCN1C(=O)[C@H](NC(=O)c2cccc(C(F)(F)F)c2)[C@@H](c2ccc(F)cc2)c2c(C3(N(C)C#N)CC3)nn(-c3ccccc3)c21 (racemic) [Compound I-76] | 1000 to 3000 nM | 1000 to 3000 nM | > 1000 nM |  | 
4 | CCN1C(=O)[C@@H](NC(=O)c2cccc(C(F)(F)F)c2)[C@H](c2ccc(F)cc2)c2c(CNC(=O)C(C)C#N)nn(-c3ccccc3)c21 (some centres unmarked) [Compound I-641] | 200 to 1000 nM | 200 to 1000 nM | > 1000 nM |  | 
5 | CCN1C(=O)[C@@H](NC(=O)c2cccc(C(F)(F)F)c2)[C@@H](c2ccc(F)cc2)c2c(CN(C#N)CCN(C)C)nn(-c3ccccc3)c21 (racemic) [Compound I-486] | ≤ 200 nM | 200 to 1000 nM | ≤ 100 nM |  | 
6 | CCN1C(=O)[C@@H](NC(=O)c2cccc(C(F)(F)F)c2)[C@@H](c2ccc(F)cc2)c2c([C@@H](CCC(O)CO)NC#N)nn(-c3ccccc3)c21 (some centres unmarked) [Compound I-497] | ≤ 200 nM |  | ≤ 100 nM | ≤ 200 nM | 
7 | CCN1C(=O)[C@@H](NC(=O)c2cccc(C(F)(F)F)c2)[C@@H](C2CC2)c2c(C(=O)N3CCOC[C@@H]3C#N)nn(-c3ccccc3)c21 [Compound I-658] | 200 to 1000 nM | 1000 to 3000 nM | > 1000 nM |  | 
8 | CCN1C(=O)[C@@H](NC(=O)c2cccc(C(F)(F)F)c2)[C@@H](C2CC2)c2c(C(=O)N(C)[C@@H](C)C#N)nn(C3CCOCC3)c21 [Compound I-549, (4S,5S)—N—((S)-1-cyanoethyl)-4-cyclopropyl-7-ethyl-N-methyl-6-oxo-1-(tetrahydro-2H-pyran-4-yl)-5-(3-(trifluoromethyl)benzamido)-4,5,6,7-tetrahydro-1H-pyrazolo[3,4-b]pyridine-3-carboxamide] | ≤ 200 nM | 200 to 1000 nM | ≤ 100 nM |  | 
9 | CCN1C(=O)[C@@H](NC(=O)c2ccn(C(F)(F)F)n2)[C@@H](c2ccc(F)cc2)c2c(C(=O)N3CCN(C)CC3C#N)nn(-c3ccccc3)c21 (stereo partly drawn) [Compound I-684, N-((4S,5S)-3-(2-cyano-4-methylpiperazine-1-carbonyl)-7-ethyl-4-(4-fluorophenyl)-6-oxo-1-phenyl-4,5,6,7-tetrahydro-1H-pyrazolo[3,4-b]pyridin-5-yl)-1-(trifluoromethyl)-1H-pyrazole-3-carboxamide] | ≤ 200 nM |  | ≤ 100 nM | ≤ 200 nM | 
10 | CCN1C(=O)[C@@H](NC(=O)c2cccn(C3CC3)c2=O)[C@@H](C2CC2)c2c(C(=O)N3[C@H](C#N)C[C@H]4C[C@H]43)nn(C3CCOCC3)c21 [Compound I-624] | 200 to 1000 nM | 200 to 1000 nM |  |  | ≤ 100 nM
11 | CCN1C(=O)[C@H](NC(=O)c2cccc(C(F)(F)F)c2)[C@H](c2ccc(F)cc2)c2c(C(=O)N3CCC[C@H]3C#N)nn(-c3cccc(OCCN(C)C4COC4)c3)c21 [Compound I-584] | 1000 to 3000 nM | 1000 to 3000 nM | > 1000 nM |  | 
12 | CCN1C(=O)[C@H](NC(=O)c2cccc(C(F)(F)F)c2)[C@@H](c2ccc(F)cc2)c2c([C@@H](C)N(C#N)CCCN(C)C)nn(-c3ccccc3)c21 [Compound I-609, N-((4S,5R)-3-((R)-1-(N-(3-(dimethylamino)propyl)cyanamido)ethyl)-7-ethyl-4-(4-fluorophenyl)-6-oxo-1-phenyl-4,5,6,7-tetrahydro-1H-pyrazolo[3,4-b]pyridin-5-yl)-3-(trifluoromethyl)benzamide formate] | ≤ 200 nM |  | > 1000 nM | ≤ 200 nM | 
13 | CCN1C(=O)[C@@H](NC(=O)c2cccc(C(F)(F)F)c2)[C@@H](c2ccc(F)cc2)c2c(CC/C=C/C(=O)N(C)C)nn(-c3ccccc3)c21 (racemic) [Compound I-48] | ≤ 200 nM |  |  | ≤ 200 nM | 
14 | C=C(Cc1nn(-c2ccccc2)c2c1[C@H](c1ccc(F)cc1)[C@H](NC(=O)c1cccc(C(F)(F)F)c1)C(=O)N2CC)C(=O)OC(C)(C)C (racemic) [Compound I-78, rac-tert-butyl 2-(((4R,5R)-7-ethyl-4-(4-fluorophenyl)-6-oxo-1-phenyl-5-(3-(trifluoromethyl)benzamido)-4,5,6,7-tetrahydro-1H-pyrazolo[3,4-b]pyridin-3-yl)methyl)acrylate] | 1000 to 3000 nM | 1000 to 3000 nM |  |  | 
15 | CCN1C(=O)[C@@H](NC(=O)CC#N)[C@@H](C2CC2)c2c(C(=O)N3[C@H](C#N)C[C@H]4C[C@H]43)nn(C3CCOCC3)c21 [Compound I-555] | 1000 to 3000 nM | 1000 to 3000 nM |  |  | 
16 | CCN1C(=O)[C@@H](NC(=O)CC2=C(C)Cc3ccc(F)cc32)[C@@H](C2CC2)c2c(C(=O)N3[C@H](C#N)C[C@H]4C[C@H]43)nn(C3CCOCC3)c21 [Compound I-504] | 1000 to 3000 nM | 1000 to 3000 nM |  |  | 
17 | CCN1C(=O)[C@@H](NC(=O)c2cccc(C(F)(F)F)c2)[C@@H](c2ccc(F)cc2)c2c([C@H](O)CNC#N)nn(-c3ccccc3)c21 (racemic) [Compound I-9, rac-N-((4R,5R)-3-(2-cyanamido-1-hydroxyethyl)-7-ethyl-4-(4-fluorophenyl)-6-oxo-1-phenyl-4,5,6,7-tetrahydro-1H-pyrazolo[3,4-b]pyridin-5-yl)-3-(trifluoromethyl)benzamide] | 1000 to 3000 nM | 200 to 1000 nM |  |  | 
18 | CCN1C(=O)[C@@H](NC(=O)C2CCOc3ccccc32)[C@@H](C2CC2)c2c(C(=O)N3[C@H](C#N)C[C@H]4C[C@H]43)nn(C3CCOCC3)c21 (some centres unmarked) [Compound I-598] | 1000 to 3000 nM | 1000 to 3000 nM |  |  | 
19 | CCN1C(=O)[C@@H](NC(=O)c2ccn(C(C)(C)C)n2)[C@@H](C2CC2)c2c(C(=O)N3[C@H](C#N)C[C@H]4C[C@H]43)nn(C3CCOCC3)c21 [Compound I-688] | ≤ 200 nM | 200 to 1000 nM |  |  | 
20 | CCN1C(=O)[C@@H](NC(=O)CN2C(=O)CSc3ccccc32)[C@@H](C2CC2)c2c(C(=O)N3[C@H](C#N)C[C@H]4C[C@H]43)nn(C3CCOCC3)c21 [Compound I-510] | 1000 to 3000 nM | 1000 to 3000 nM |  |  | 
21 | CCN1C(=O)[C@@H](NC(=O)c2cccc(C(F)(F)F)c2)[C@@H](c2ccc(F)cc2)c2c(CC/C=C\C(N)=O)nn(-c3ccccc3)c21 (racemic) [Compound I-142] | 200 to 1000 nM | 200 to 1000 nM |  |  | 
22 | CCN1C(=O)[C@@H](NC(=O)c2cccc(C(F)(F)F)c2)[C@@H](c2ccc(F)cc2)c2c([C@@H](C)N(C)C#N)nn(-c3ccccc3)c21 [Compound I-44] | ≤ 200 nM | 200 to 1000 nM |  |  | 
23 | C[C@@H](NC#N)c1nn(-c2ccccc2)c2c1[C@H](c1ccc(F)cc1)[C@H](NC(=O)c1cccc(C(F)(F)F)c1)C(=O)N2CCOP(=O)(O)O [Compound I-162] | ≤ 200 nM |  |  | ≤ 200 nM | 
24 | CCN1C(=O)[C@@H](NC(=O)CC(C)(C)C)[C@@H](C2CC2)c2c(C(=O)N3[C@H](C#N)C[C@H]4C[C@H]43)nn(C3CCOCC3)c21 [Compound I-424] | 1000 to 3000 nM | 1000 to 3000 nM |  |  | 
25 | CCN1C(=O)[C@@H](NC(=O)CC2CCCc3ccccc32)[C@@H](C2CC2)c2c(C(=O)N3[C@H](C#N)C[C@H]4C[C@H]43)nn(C3CCOCC3)c21 (some centres unmarked) [Compound I-663] | 1000 to 3000 nM | 1000 to 3000 nM |  |  | 
26 | CCN1C(=O)[C@@H](NC(=O)c2cccc(C(F)(F)F)c2)[C@@H](c2ccc(F)cc2)c2c(C(=O)N(C)[C@H](C#N)CCN(C)C)nn(-c3ccccc3)c21 (single isomer, unassigned) [Compound I-303, (4S,5S)—N-[(1S*)-1-cyano-3-(dimethylamino)propyl]-7-ethyl-4-(4-fluorophenyl)-N-methyl-6-oxo-1-phenyl-5-[3-(trifluoromethyl)benzamido]-4H,5H-pyrazolo[3,4-b]pyridine-3-carboxamide] |  |  | ≤ 100 nM |  | 
27 | CCN1C(=O)[C@@H](NC(=O)c2cccc(F)c2)[C@@H](C2CC2)c2c(C(=O)N3[C@H](C#N)C[C@H]4C[C@H]43)nn(C3CCOCC3)c21 [Compound I-690] | ≤ 200 nM | 200 to 1000 nM |  |  | 
